Earlier results in patent US20240115593A1, “METHISOPRINOL COMPOSITIONS” (priority 2020, published 2024).

Details: water solution without additional 1-dimethylaminopropan-2-ol 4-acetamidobenzoate, stored at +20° C. to +2° C.

- time after which Methisoprinol crystallizes out: 6 days
Substance: Methisoprinol
